Source: publication PMC10794144, “A novel antibiotic class targeting the lipopolysaccharide transporter” (Nature, 2024)
Values after ≈ are worked out from the molar mass of the structure shown.

Experiments:
A. baumannii = assay: microbe, parasite or virus in culture
Protocol: (§1) MIC determinations were performed using the broth microdilution method and in line with CLSI guidelines M07 and M100 (refs. [37],[38]). Bacterial inocula were prepared by diluting a 0.5 McFarland suspension in CAMHB or lysogeny broth (LB) specifically for A. baylyi isolates. […] MIC values of all of the tested antibiotics were read as the lowest compound concentration inhibiting bacterial growth by naked eye or beyond which the OD600 ceased to decrease.

[1] = system: K. pneumoniae ATCC 700603; assay: microbe, parasite or virus in culture
Protocol: as §1

SMILES: CN1C(=O)[C@H](CCCN)NC(=O)[C@H](CCCN)NCc2ccccc2Sc2ccccc2CNC(=O)[C@@H]1Cc1c[nH]c2ccccc12 [RO7036668]
- MIC range (A. baumannii; 10 MDR isolates, CAMHB, MCPs read at 80% growth inhibition): 1 to 16 µg/mL
- MIC90 (A. baumannii; Acinetobacter baumannii): 16 µg/mL (≈ 24.4 µM)
- MIC (A. baumannii; Acinetobacter baumannii, ATCC19606, ATCC 19606, CAMHB, MCPs read at 80% growth inhibition): 4 µg/mL (≈ 6.1 µM)
- MIC ([1]; Klebsiella pneumoniae, ATCC700603, CAMHB, mode of at least three replicates (RO7036668 one replicate)): > 64 µg/mL
- MIC 100% ([1]; Study ROC004, 100%): >64 µg/mL
